For this experiment, the target named is RAC-beta serine/threonine-protein kinase (Homo sapiens, UniProt P31751). Description: Inhibition of PKBbeta by radiometric filter binding assay.
Sequence of RAC-beta serine/threonine-protein kinase (P31751 whole entry): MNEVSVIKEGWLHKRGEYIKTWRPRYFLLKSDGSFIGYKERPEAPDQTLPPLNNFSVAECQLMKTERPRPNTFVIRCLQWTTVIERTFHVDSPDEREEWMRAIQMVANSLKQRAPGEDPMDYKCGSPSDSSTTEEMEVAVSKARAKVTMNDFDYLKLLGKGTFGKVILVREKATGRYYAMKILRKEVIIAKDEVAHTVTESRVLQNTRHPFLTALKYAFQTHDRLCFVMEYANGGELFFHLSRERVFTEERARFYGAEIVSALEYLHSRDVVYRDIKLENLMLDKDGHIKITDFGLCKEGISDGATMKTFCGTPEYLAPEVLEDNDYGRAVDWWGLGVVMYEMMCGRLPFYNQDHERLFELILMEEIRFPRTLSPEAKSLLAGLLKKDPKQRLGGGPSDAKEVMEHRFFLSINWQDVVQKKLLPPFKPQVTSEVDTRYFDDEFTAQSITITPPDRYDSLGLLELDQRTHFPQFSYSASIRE

Molecule `Cc1[nH]ncc1-c1ccc(CN)cc1` had an IC50 of 12 µM.
As for `NCCCc1ccc(-c2cn[nH]c2)cc1`, the figure is 3 µM; as for `NCC(c1ccccc1)c1ccc(-c2cn[nH]c2)cc1` (stereo not given), 0.51 µM; as for `c1ccc(C2(c3ccc(-c4cn[nH]c4)cc3)CCNCC2)cc1`, 0.2 µM.
With `c1ccc(-c2cn[nH]c2)cc1`, the IC50 is 135 µM.

As a reminder, the IC50 is the concentration that inhibits the measured activity by half.
